Measured values published in EP1118612A1, “Piperazine derivatives possesing nootropic activity” (Universita Degli Studi di Firenze, priority 2000, dated 2001).

System: mice
Assay: Passive-Avoidance test (modified step-through, fall into cold water bath), amnesia induced by scopolamine, baclofen, mecamylamine or clonidine
Assay type: in vivo, mouse
Conditions: for 2nd Day (latency time for entering the dark compartment, retention test after 24 h): max latency 120 s
Method: A slightly modified step-through method described by Jarvik and [Psycol. Rep. […] The apparatus consists of a two-compartment acrylic box with a lighted compartment connected to the darkened one by a guillotine door. In the original method, mice received a punishing electrical shock as soon as they entered the dark compartment, while in our modified method, after entry into the dark compartment, mice receive a non-painful punishment consisting of a fall (from 40 cm ) into a cold water bath (10°C) . For this purpose the dark chamber was constructed with a pitfall floor. The latency times for entering the dark compartment were measured in the training test (first day) and after 24 h in the retention test (second day). […] All investigated drugs were injected 20 min before the training session, while amnesic drugs were injected immediately after termination of the training session. […] The memory degree of received punishment (fall into cold water) was expressed as the increase in seconds between training and retention latencies (see Table 5).

[1] = 0.001 mg kg^-1 injected 20 min before training, + Scopolamine 1.5 mg kg^-1 i.p. after training
[2] = 0.1 mg kg^-1, + Scopolamine 1.5 mg kg^-1 i.p.
[3] = 0.1 mg kg^-1 injected 20 min before training, + Scopolamine 1.5 mg kg^-1 i.p. after training
[4] = 1.0 mg kg^-1 injected 20 min before training, + Baclofen 2 mg kg^-1 i.p. after training
[5] = 1.0 mg kg^-1 injected 20 min before training, + Clonidine 0.125 mg kg^-1 i.p. after training
[6] = 10 mg kg^-1 injected 20 min before training, + Scopolamine 1.5 mg kg^-1 i.p. after training
[7] = 20 mg kg^-1 injected 20 min before training, + Mecamilamine 20 mg kg^-1 i.p. after training
[8] = 0.01 mg kg^-1, + Scopolamine 1.5 mg kg^-1 i.p.
[9] = 0.01 mg kg^-1 injected 20 min before training, + Scopolamine 1.5 mg kg^-1 i.p. after training
[10] = 0.1 mg kg^-1 injected 20 min before training, + Baclofen 2 mg kg^-1 i.p. after training
[11] = 0.1 mg kg^-1 injected 20 min before training, + Clonidine 0.125 mg kg^-1 i.p. after training
[12] = 1 mg kg^-1 injected 20 min before training, + Mecamilamine 20 mg kg^-1 i.p. after training
[13] = 30 mg kg^-1 injected 20 min before training, + Baclofen 2 mg kg^-1 i.p. after training
[14] = 30 mg kg^-1 injected 20 min before training, + Scopolamine 1.5 mg kg^-1 i.p. after training
[15] = 0.01 mg kg^-1 injected 20 min before training, + Baclofen 2 mg kg^-1 i.p. after training
[16] = 10 mg kg^-1 injected 20 min before training, + Mecamilamine 20 mg kg^-1 i.p. after training

## O=C1CCC2CN(S(=O)(=O)c3ccc(F)cc3)CCN12 (racemic) [Compound 2, 4-(4-fluorobenzensolfonyl)-1,4-diazabicyclo[4.3.0]nonan-9-one]
0.001 mg kg^-1, + Scopolamine 1.5 mg kg^-1 i.p.
  Δ (increase in seconds between training and retention latencies): 93.8 s
[1]
  1st Day (latency time for entering the dark compartment, training test): 19.7 ± 5.8 s
  2nd Day (latency time for entering the dark compartment, retention test after 24 h): 104.4 ± 10.6 s

## C[C@H]1C[C@@H]2CN(C(=O)c3ccc(F)cc3)CCN2C1=O (racemic) [Compound 3a, Exo (±) 8-methyl-4-(4-fluorobenzoyl)-1,4-diazabicyclo[4.3.0]nonan-9-one]
[2]
  Δ (increase in seconds between training and retention latencies): 85.6 s
[3]
  1st Day (latency time for entering the dark compartment, training test): 21.8 ± 4.8 s
  2nd Day (latency time for entering the dark compartment, retention test after 24 h): 107.4 ± 10.7 s

## C[C@@H]1C[C@@H]2CN(C(=O)c3ccc(F)cc3)CCN2C1=O (racemic) [Compound 3b, Endo (±) 8-methyl-4-(4-fluorobenzoyl)-1,4-diazabicyclo[4.3.0]nonan-9-one]
[2]
  Δ (increase in seconds between training and retention latencies): 80.0 s
[3]
  1st Day (latency time for entering the dark compartment, training test): 12.5 ± 5.9 s
  2nd Day (latency time for entering the dark compartment, retention test after 24 h): 104.0 ± 8.6 s

## O=C(c1ccc(F)cc1)N1CCN2C(=O)CCC2C1 (stereo not shown) [Compound 1, 4-(4-fluorobenzoyl)-1,4-diazabicyclo[4.3.0]nonan-9-one]
[2]
  Δ (increase in seconds between training and retention latencies): 82.2 s
[3]
  1st Day (latency time for entering the dark compartment, training test): 18.1 ± 3.9 s
  2nd Day (latency time for entering the dark compartment, retention test after 24 h): 100.3 ± 10.4 s

## C[C@H]1C[C@@H]2CN(S(=O)(=O)c3ccc(F)cc3)CCN2C1=O [Compound 4a, Exo 8-methyl-4-(4-fluorobenzensolfonyl)-1,4-diazabicyclo[4.3.0]nonan-9-one]
[2]
  Δ (increase in seconds between training and retention latencies): 78.0 s
[3]
  1st Day (latency time for entering the dark compartment, training test): 16.9 ± 6.1 s
  2nd Day (latency time for entering the dark compartment, retention test after 24 h): 94.9 ± 11.2 s

## C[C@@H]1C[C@@H]2CN(S(=O)(=O)c3ccc(F)cc3)CCN2C1=O [Compound 4b, Endo 8-methyl-4-(4-fluorobenzensolfonyl)-1,4-diazabicyclo[4.3.0]nonan-9-one]
[2]
  Δ (increase in seconds between training and retention latencies): 96.5 s
[3]
  1st Day (latency time for entering the dark compartment, training test): 21.9 ± 4.7 s
  2nd Day (latency time for entering the dark compartment, retention test after 24 h): 118.4 ± 10.2 s

## CC(=O)N1CCN(C(=O)c2ccc(F)cc2)CC1 [Compound 5, 4-Acetyl-1-(4-fluorobenzoyl)piperazine]
1.0 mg kg^-1, + Baclofen 2 mg kg^-1 i.p.
  Δ (increase in seconds between training and retention latencies): 93.2 s
1.0 mg kg^-1, + Clonidine 0.125 mg kg^-1 i.p.
  Δ (increase in seconds between training and retention latencies): 88.1 s
[4]
  1st Day (latency time for entering the dark compartment, training test): 11.4 ± 5.2 s
  2nd Day (latency time for entering the dark compartment, retention test after 24 h): 104.6 ± 10.3 s
[5]
  1st Day (latency time for entering the dark compartment, training test): 8.0 ± 4.1 s
  2nd Day (latency time for entering the dark compartment, retention test after 24 h): 96.1 ± 10.7 s
10 mg kg^-1, + Scopolamine 1.5 mg kg^-1 i.p.
  Δ (increase in seconds between training and retention latencies): 72.6 s
[6]
  1st Day (latency time for entering the dark compartment, training test): 17.5 ± 6.1 s
  2nd Day (latency time for entering the dark compartment, retention test after 24 h): 91.1 ± 9.5 s
20 mg kg^-1, + Mecamilamine 20 mg kg^-1 i.p.
  Δ (increase in seconds between training and retention latencies): 91.7 s
[7]
  1st Day (latency time for entering the dark compartment, training test): 17.0 ± 2.7 s
  2nd Day (latency time for entering the dark compartment, retention test after 24 h): 108.7 ± 3.5 s

## CC(=O)N1CCN(S(=O)(=O)c2ccc(F)cc2)CC1 [Compound 6, 4-Acetyl-1-(4-fluorobenzensolfonyl)piperazine]
[8]
  Δ (increase in seconds between training and retention latencies): 79.2 s
[9]
  1st Day (latency time for entering the dark compartment, training test): 19.8 ± 4.1 s
  2nd Day (latency time for entering the dark compartment, retention test after 24 h): 99.0 ± 18.3 s
0.1 mg kg^-1, + Baclofen 2 mg kg^-1 i.p.
  Δ (increase in seconds between training and retention latencies): 80.4 s
0.1 mg kg^-1, + Clonidine 0.125 mg kg^-1 i.p.
  Δ (increase in seconds between training and retention latencies): 77.4 s
[10]
  1st Day (latency time for entering the dark compartment, training test): 11.7 ± 4.1 s
  2nd Day (latency time for entering the dark compartment, retention test after 24 h): 92.1 ± 7.9 s
[11]
  1st Day (latency time for entering the dark compartment, training test): 14.7 ± 3.7 s
  2nd Day (latency time for entering the dark compartment, retention test after 24 h): 92.4 ± 8.1 s
1 mg kg^-1, + Mecamilamine 20 mg kg^-1 i.p.
  Δ (increase in seconds between training and retention latencies): 91.6 s
[12]
  1st Day (latency time for entering the dark compartment, training test): 18.1 ± 3.8 s
  2nd Day (latency time for entering the dark compartment, retention test after 24 h): 109.7 ± 13.6 s

## CCC(=O)N1CCN(C(=O)c2ccc(F)cc2)CC1 [Compound 7, 4-Propionyl-1-(4-fluorobenzoyl)piperazine]
30 mg kg^-1, + Baclofen 2 mg kg^-1 i.p.
  Δ (increase in seconds between training and retention latencies): 86.8 s
30 mg kg^-1, + Scopolamine 1.5 mg kg^-1 i.p.
  Δ (increase in seconds between training and retention latencies): 80.5 s
[13]
  1st Day (latency time for entering the dark compartment, training test): 20.6 ± 4.9 s
  2nd Day (latency time for entering the dark compartment, retention test after 24 h): 107.1 ± 11.4 s
[14]
  1st Day (latency time for entering the dark compartment, training test): 11.9 ± 5.6 s
  2nd Day (latency time for entering the dark compartment, retention test after 24 h): 92.4 ± 10.1 s

## CCC(=O)N1CCN(S(=O)(=O)c2ccc(F)cc2)CC1 [Compound 8, 4-Propionyl-1-(4-fluorobenzensolfonyl)piperazine]
0.01 mg kg^-1, + Baclofen 2 mg kg^-1 i.p.
  Δ (increase in seconds between training and retention latencies): 86.8 s
[8]
  Δ (increase in seconds between training and retention latencies): 67.9 s
[15]
  1st Day (latency time for entering the dark compartment, training test): 16.3 ± 3.3 s
  2nd Day (latency time for entering the dark compartment, retention test after 24 h): 103.3 ± 13.9 s
[9]
  1st Day (latency time for entering the dark compartment, training test): 15.9 ± 3.2 s
  2nd Day (latency time for entering the dark compartment, retention test after 24 h): 83.8 ± 9.2 s
10 mg kg^-1, + Mecamilamine 20 mg kg^-1 i.p.
  Δ (increase in seconds between training and retention latencies): 90.2 s
[16]
  1st Day (latency time for entering the dark compartment, training test): 16.5 ± 2.7 s
  2nd Day (latency time for entering the dark compartment, retention test after 24 h): 106.7 ± 10.2 s

## NC(=O)CN1CCCC1=O [Piracetam, piracetam, reference compound]
[13]
  1st Day (latency time for entering the dark compartment, training test): 20.9 ± 4.5 s
30 mg kg^-1 injected 20 min before training, + Clonidine 0.125 mg kg^-1 i.p. after training
  1st Day (latency time for entering the dark compartment, training test): 11.6 ± 3.7 s
30 mg kg^-1 injected 20 min before training, + Mecamilamine 20 mg kg^-1 i.p. after training
  1st Day (latency time for entering the dark compartment, training test): 16.7 ± 4.8 s
[14]
  1st Day (latency time for entering the dark compartment, training test): 17.6 ± 3.6 s
